Read-outs that look alike come from different tables or passages of the source.
Columns and labels:
[1] = system: mice after myocardial infarction; assay: Myocardial infarction model, permanent LAD ligation (echocardiography, histology, immunostaining, PET, EM); assay type: in vivo, ICR (CD1) mice; conditions: six weeks post-MI, picrosirius red
Method: Model of heart failure in adult mice. To induce myocardial infarction (MI) in 8- to 10-week-old mice, the left anterior descending (LAD) artery was permanently ligated. Briefly, mice were anesthetized with 2% isoflurane and then intubated. The heart was exposed by performing a thoracotomy through the fourth or fifth intercostal space and an 8-0 nylon suture was tied around the LAD artery. 10 uls of Adenoviral SRC-3 (Ad-SRC-3) or adenoviral GFP (Ad-GFP) at a titre of 9×10^9 pfu/ml was injected into the anterior free wall near left ventricular descending coronary artery. To assess cell cycle entry, the analog 5-ethynyl-2′-deoxyuridine (EdU; 0.2 g/L, Santa Cruz, SC-284628A) was added to the drinking water for the 9 day duration of the experiment. Cell proliferation was measured using Click-iT EdU kit (Invitrogen, C10339). The initial dose of MCB-613 was administered intraperitoneally at 20 mg/kg 2 hours after surgery. Subsequent injections of the same dose were given for 6 additional days, and then repeated doses were given for 3 days at week 9 and week 16. Mice were harvested at indicated time points for analyses.
Echocardiography. Cardiac function was determined by echocardiography (VisualSonics, Vevo 2100, 40 Mhz-550S probe). After alignment in the transverse B-mode with the papillary muscles, cardiac function was measured on M-mode images.
(§1) Histological analysis. Whole hearts were fixed with 10% formalin, embedded in paraffin, and sectioned at 7 μm intervals. Each slide had 3 or 10 sections, which started at the apex and ended at the suture ligation site (approximately 30-50 slides). Sections at the papillary level (slides 20-30) were stained with Picrosirius red to identify areas of fibrosis. Infarct size was determined using a length-based approach.
Immunostaining analysis. Immunohistochemistry and immunofluorescent staining experiments were performed on FFPE (formalin-fixed and paraffin-embedded sections). TUNEL staining to detect apoptotic cells was done using the DeadEnd™ Fluorometric TUNEL System manufacturer's protocol (Promega, GS3250).
Model of heart failure in adult mice. To induce MI in eight- to ten-week-old mice, the left anterior descending (LAD) artery was permanently ligated. Briefly, mice were anesthetized with 2% isoflurane and then intubated. The heart was exposed by performing a thoracotomy through the fourth or fifth intercostal space and an 8-0 nylon suture was tied around the LAD. The initial dose of MCB-613 was administered intraperitoneally at 20 mg/kg, two hours after surgery. Subsequent injection at the same time of the day and same dose were given for six additional days, and then repeated doses were given for three days at week nine and week 16. Mice were harvested at the indicated time points for analyses.
Echocardiography. Cardiac function was determined by echocardiography (VisualSonics, Vevo 2100, 40 Mhz-550S probe). After alignment in the transverse B-mode with the papillary muscles, cardiac function was measured on M-mode images. Animal numbers for cardiac function in FIG. 11A are Day 0 control (17); MCB-613 (15), Day 1 control (10); MCB-613 (12), Day 14 […], Day 56 control (12); MCB-613 (15), Day 70 control (8); MCB-613 (10), Day 80 control (8); MCB-613 (11), Day 133 control (3); and MCB-613 (3).
as §1, with “three (3) to ten (10)” for “3 or 10”, “approach. TUNEL staining to detect apoptotic cells was performed using the DeadEnd™ Fluorometric TUNEL System (Promega, GS3250).” for “approach.”
Electron Microscopy. […]

[2] = system: SRC-1, SRC-2 or SRC-3 fused with the DNA binding domain of Gal4; assay: Gal4 luciferase reporter (pG5-luc / pBIND-SRC) in HeLa cells; assay type: cell-based; conditions: pG5-luc + pBIND-SRC-1, -2 or -3
Description: The compounds described herein stimulate SRC intrinsic transcriptional activity. HeLa cells transfected with a Gal4 responsive luciferase reporter (pG5-luc) and a construct encoding SRC-1, SRC-2 or SRC-3 fused with the DNA binding domain of Gal4 (pBIND-SRC-1, pBIND-SRC-2 or pBIND-SRC-3) were exposed to treatments with compounds as described herein, including MCB-613, Compound 10-1, and Compound 10-2.

[3] = system: mice after myocardial infarction; assay: Progressive maximal exercise test, indirect calorimetry (VO2, VCO2); assay type: in vivo; conditions: after myocardial infarction
Method: RER, VO2 and VCO2 measurements. Respiratory exchange ratio (RER), oxygen consumption (VO^2) and carbon dioxide expiration (VCO2) were measured by indirect calorimetry using a progressive maximal exercise test until mice reached exhaustion.
RER, VO2 and VCO2 measurements. RER, VO2 and VCO2 were measured by indirect calorimetry using a progressive maximal exercise test until mice reached exhaustion.

[4] = mouse, in vivo
Method: (§2) Each of the three compounds was dissolved in DMSO (20 mg/mL), mixed with 30% hydroxypropyl-β-cyclodextrin at a 1:9 ratio, and administered to the CD-1 mice intraperitoneally (ip) or orally (po) through a gavage. After compound administration, blood samples (3 mice per compound) were collected at nine time points, i.e., at 5 minutes, 0.25 hours, 0.5 hours, 1 hour, 2 hours, 4 hours, 8 hours, 12 hours, and 24 hours, through the tail vein. Plasma was isolated from these blood samples and the compound plasma concentrations were determined by HPLC-MS/MS. Pharmacokinetic parameters were calculated using the program PKSolver, an add-in program for use in analyzing pharmacokinetic and pharmacodynamics data analysis, as described in Zhang et al., Computer Methods and Programs in Biomedicine, 99: 306-314 (2010).

[5] = in vivo; conditions: CD-1, mouse
Method: as §2

Structure (SMILES) | infarct size vs saline control [1] | intrinsic transcriptional activity of SRCs (luciferase) [2] | cardiovascular fitness (VCO2, VO2, FIG. 9) [3] | Cl ([4]; ip) | Cl ([4]; po) | AUC(0-inf) ([5]; ip) [ng·h/mL] | AUC(0-t) ([5]; ip) [ng·h/mL] | Cmax ([5]; ip) [ng/mL] | Tmax ([5]; ip) [min] | half-life ([5]; ip, Terminal phase t1/2) [min] | half-life ([5]; ip, t1/2) [min] | AUC(0-inf) ([5]; po) [ng·h/mL] | AUC(0-t) ([5]; po) [ng·h/mL] | Cmax ([5]; po) [ng/mL] | Tmax ([5]; po) [min] | half-life ([5]; po, Terminal phase t1/2) [min] | half-life ([5]; po, t1/2) [min]
COc1ccccc1/C=C1\CN(CCC(C)C)C/C(=C\c2ccccc2OC)C1=O [Compound 10-1, (3E,5E)-1-isopentyl-3,5-bis(2-methoxybenzylidene)piperidin-4-one] | decrease in infarct size | selectively stimulates the intrinsic transcriptional activity of SRCs | improves cardiovascular fitness after myocardial infarction | 0.97 (mg)/(ng/mL)/h | 7.3 (mg)/(ng/mL)/h | 851 | 623 | 357 | 15 | 1090 | 38.4 | 113 | 98.4 | 53.2 | 30 | 612 | 72
COc1cccc(/C=C2\CN(CCC(C)C)C/C(=C\c3cccc(OC)c3)C2=O)c1 [Compound 10-2, (3E,5E)-1-isopentyl-3,5-bis(3-methoxybenzylidene)piperidin-4-one] | – | selectively stimulates the intrinsic transcriptional activity of SRCs | – | 1.7 (mg)/(ng/mL)/h | 6.1 (mg)/(ng/mL)/h | 482 | 334 | 463 | 4.8 | 954 | 15 | 135 | 131 | 182 | 15 | 1630 | 46.8
